Measurements as given in patent US11873295B2, “Allosteric chromenone inhibitors of phosphoinositide 3-kinase (PI3K) for the treatment of disease” (Petra Pharma Corporation, priority 2021, dated 2024).

Tests used:
[1] = molecular target: T1, human full length PIK3KA Wild-type (p110α/p85α complex) (Homo sapiens, UniProt P42336); assay: PI3K-alpha kinase (PIK3CA) biochemical activity, wild-type, ADP-Glo; conditions: PI3K-α (PIK3CA) biochemical, Soy PI lipid substrate
T1 construct: Recombinant, catalytically active human full length PIK3KA Wild-type and H1047R mutant were purchased as 1:1 complex; 6xHis (N); purchased EMD Millipore Sigma 14-602M
How it was run: (§1)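 ADP formation, read by ADP-Glo, is run to about 10% ATP turnover at 27 °C with 20 μM ATP and 50 μM PIP2diC8 or soy PI. WT or H1047R p110α/p85α (1–5 nM) is pre-incubated 1 h with compound in HEPES pH 7.4/MgCl2/Triton buffer, 1% DMSO. 10-point 1:3 series, logistic IC50 versus no-enzyme and DMSO controls.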

[2] = tested on: PI3K-α (PIK3CA) in MDA-MB-453 cells; assay: PI3K-alpha kinase (PIK3CA) activity in vitro cell based assay, MDA-MB-453 cells, AlphaLisa SureFire; conditions: 0% FBS, 3 hours treatment, relative IC50
Procedure: PI3K-Alpha Kinase (PIK3CA) Activity In Vitro Cell Based Assay and Determining IC50 Values for Inhibitors
The MDA-MB-453 (ATCC-HTB-131) cell line was obtained from the American Type Culture Collection (Manassas, VA). Cells were maintained in Dulbecco's Modified Eagle Media (DMEM, Gibco 11965-092) supplemented with 10% Fetal Bovine Serum, heat inactivated (FBS HI, Gibco 10082-147), 1× non-essential amino acids (NEAA, Gibco 11140-050), and 1 mM sodium pyruvate (Gibco 11360-070). Cultures were maintained in a humidified incubator at 37° C. under 5% CO2/95% air.
For compound testing in 0% FBS, MDA-MB-453 cells were seeded at a density of 1.5×10^4 cells per well in white 384-well plates in 20 μl of Minimum Essential Media (MEM) assay media with 1×NEAA, 1 mM sodium pyruvate, and 1 μg/mL human insulin (Sigma I9278). Compounds dissolved in 10 mM stock solutions in DMSO were serially diluted 1:3 in DMSO to generate a 10-point dilution series and plated using an acoustic liquid handler system (Echo 550 Series Liquid Handler, Labcyte). A 5× intermediate compound dilution plate in MEM with 1×NEAA and 1 mM sodium pyruvate (150 μM starting compound concentration in 1.5% DMSO) was then prepared. Five μl of the intermediate serially diluted compounds were added to the cell plate to final concentrations ranging from […] in 0.3% DMSO. 0.3% DMSO alone was used to establish the maximum (MAX) signal and GDC-0032 at a final concentration of 1 μM was used as a reference compound for the minimum (MIN) signal. After 3 hours treatment, the medium was removed, and the cells lysed in 10 μL of 1× SureFire Lysis buffer with shaking for 10 minutes at room temperature. The Acceptor Mix (Reaction Buffer 1+Reaction Buffer 2+Activation Buffer+SureFire Ultra Acceptor Beads) was prepared by diluting Activation buffer 25-fold in combined Reaction Buffer 1 and Reaction Buffer 2. The Acceptor beads were diluted 50-fold in the combined Reaction Buffers. Five μL of Acceptor Mix was added to each well, the plate was sealed and covered with foil and incubated for 1 hour at room temperature. The Donor Mix (dilution buffer+SureFire Ultra Donor Beads) was prepared by diluting Donor Beads 50-fold in dilution buffer. Five μL of the Donor Mix was added to each well and the plate sealed and covered with foil and incubated for 1 hour at room temperature in the dark. The plates were read on a Neo2 plate reader instrument from Biotek using standard AlphaLisa settings. Compounds were tested in duplicate and the average % inhibition at each compound concentration was used to generate a single dose response curve. The data were processed using the Genedata-Screener tool. Relative IC50 values were determined using luminescence units by calculating percent inhibition with respect to the in-plate “MIN” (GDC-0032 reference control) and “MAX” (DMSO) controls. The data was analyzed using a 4-parameter nonlinear logistic equation (four-parameter logistic concentration-response curve): Y=bottom+[(top−bottom)/1+(X/IC50)slope] where Y=% inhibition, X=concentration of inhibitor, bottom=minimum value of y attained by curve-fit, top=maximum value of y attained by curve-fit and slope=steepness of curve at the IC50. % Inhibition=[(signal at X−median Min)/(median Max−median Min)]×100 IC50: concentration of compound that reduces a given response (ligand binding, enzyme response) by 50%. Relative IC50: concentration giving half the compound's maximum response.
For IC50 values shown in Table B, “A” means IC50<50 nM; “B” means IC50 ranging between 50 nM and 100 nM; “C” means IC50 ranging between 100 nM and 500 nM; “D” means IC50>500 nM.

[3] = molecular target: T2, human full length PIK3KA H1047R mutant (p110α/p85α complex) (Homo sapiens, UniProt P42336, H1047R); assay: PI3K-alpha kinase (PIK3CA) biochemical activity, H1047R mutant, ADP-Glo; conditions: PI3K-α (PIK3CA) biochemical, H1047R mutant, Soy PI lipid substrate
T2 construct: Recombinant, catalytically active human full length PIK3KA Wild-type and H1047R mutant were purchased as 1:1 complex; 6xHis (N); purchased EMD Millipore Sigma 14-792M
How it was run: as §1

T2 sequence (P42336 whole entry H1047R): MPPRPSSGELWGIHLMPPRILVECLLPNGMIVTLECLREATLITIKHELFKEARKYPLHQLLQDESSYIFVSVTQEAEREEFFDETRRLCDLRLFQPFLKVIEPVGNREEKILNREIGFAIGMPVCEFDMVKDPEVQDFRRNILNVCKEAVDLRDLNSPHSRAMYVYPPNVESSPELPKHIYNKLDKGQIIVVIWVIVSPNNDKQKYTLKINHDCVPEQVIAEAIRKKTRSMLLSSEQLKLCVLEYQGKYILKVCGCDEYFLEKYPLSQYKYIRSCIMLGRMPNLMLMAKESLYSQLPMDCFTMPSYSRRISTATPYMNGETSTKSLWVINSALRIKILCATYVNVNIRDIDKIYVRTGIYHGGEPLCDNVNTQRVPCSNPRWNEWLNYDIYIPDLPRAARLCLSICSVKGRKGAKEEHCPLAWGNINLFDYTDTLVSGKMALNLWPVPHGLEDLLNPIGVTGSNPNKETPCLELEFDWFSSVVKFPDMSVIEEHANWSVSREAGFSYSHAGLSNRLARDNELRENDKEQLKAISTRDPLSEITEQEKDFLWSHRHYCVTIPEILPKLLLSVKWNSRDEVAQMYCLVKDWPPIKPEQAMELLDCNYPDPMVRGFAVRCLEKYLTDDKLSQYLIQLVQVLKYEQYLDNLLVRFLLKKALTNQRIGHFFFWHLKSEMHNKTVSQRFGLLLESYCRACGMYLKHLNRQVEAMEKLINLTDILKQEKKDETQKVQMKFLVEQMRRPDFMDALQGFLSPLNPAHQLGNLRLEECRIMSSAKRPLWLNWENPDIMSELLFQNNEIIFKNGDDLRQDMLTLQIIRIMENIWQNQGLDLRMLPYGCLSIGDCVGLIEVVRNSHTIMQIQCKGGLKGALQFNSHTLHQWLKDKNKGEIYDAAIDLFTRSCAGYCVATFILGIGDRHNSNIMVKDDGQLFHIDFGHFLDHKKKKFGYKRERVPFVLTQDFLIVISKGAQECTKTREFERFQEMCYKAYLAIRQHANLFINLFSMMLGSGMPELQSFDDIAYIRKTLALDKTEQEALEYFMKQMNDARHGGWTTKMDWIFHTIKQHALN
T2 sequence (P27986 whole entry partner): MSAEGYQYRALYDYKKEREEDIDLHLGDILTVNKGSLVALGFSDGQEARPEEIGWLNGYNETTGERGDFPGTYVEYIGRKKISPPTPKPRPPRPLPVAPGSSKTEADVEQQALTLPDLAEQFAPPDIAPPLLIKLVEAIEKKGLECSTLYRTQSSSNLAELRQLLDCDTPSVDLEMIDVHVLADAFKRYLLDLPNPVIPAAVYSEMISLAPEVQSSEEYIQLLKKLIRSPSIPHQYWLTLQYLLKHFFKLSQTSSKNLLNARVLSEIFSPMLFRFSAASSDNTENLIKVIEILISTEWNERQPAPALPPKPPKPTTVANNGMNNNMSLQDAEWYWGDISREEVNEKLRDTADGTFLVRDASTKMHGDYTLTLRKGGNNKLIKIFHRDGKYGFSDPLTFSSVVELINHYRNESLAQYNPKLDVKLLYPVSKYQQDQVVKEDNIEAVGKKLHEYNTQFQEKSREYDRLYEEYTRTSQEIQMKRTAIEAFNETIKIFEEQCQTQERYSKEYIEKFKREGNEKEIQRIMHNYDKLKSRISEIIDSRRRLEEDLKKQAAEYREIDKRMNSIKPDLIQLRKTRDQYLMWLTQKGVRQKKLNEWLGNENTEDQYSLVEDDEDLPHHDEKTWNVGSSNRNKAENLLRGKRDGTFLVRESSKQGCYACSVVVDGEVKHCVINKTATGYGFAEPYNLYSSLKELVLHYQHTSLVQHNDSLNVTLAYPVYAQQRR

SMILES	IC50 [1] [µM]	IC50 [2] [µM]	IC50 [3] [µM]	IC50 ([2]; Homo sapiens, MDA-MB-453, 3 h) [µM]
Cc1cc(C(C)Nc2cccc(F)c2C(=O)O)c2oc(-c3cccc(F)c3)c(C)c(=O)c2c1 (single isomer, unassigned; isomer 2) [Example 106, 2-Fluoro-6-[1-[2-(3-fluorophenyl)-3,6-dimethyl-4-oxo-chromen-8-yl]ethylamino]benzoic acid, Isomer 2]	1 to 5	> 0.5	1 to 5	
Cc1cc(C(C)Nc2cccc(F)c2C(=O)O)c2oc(-c3ccccc3F)cc(=O)c2c1 (single isomer, unassigned; isomer 2) [Example 108, 2-Fluoro-6-[1-[2-(2-fluorophenyl)-6-methyl-4-oxo-chromen-8-yl]ethylamino]benzoic acid, Isomer 2]	> 10		5 to 10	> 0.5
COc1ccc(NC(C)c2cc(C)cc3c(=O)c(C)c(-c4ccccc4)oc23)c(C(=O)O)n1 (single isomer, unassigned; isomer 2) [Example 110, 3-[1-(3,6-Dimethyl-4-oxo-2-phenyl-chromen-8-yl)ethylamino]-6-methoxy-pyridine-2-carboxylic acid, Isomer 2]	1 to 5	> 0.5	1 to 5	
Cc1cc([C@@H](C)Nc2ccc(C#N)cc2C(=O)O)c2oc(-c3ccccc3)c(C)c(=O)c2c1 (single isomer, unassigned; isomer 2) [Example 158]	1 to 5	< 0.05	< 0.5	
Cc1cc([C@@H](C)Nc2ccc(C#N)nc2C(=O)O)c2oc(-c3ccccc3)c(C)c(=O)c2c1 (single isomer, unassigned; isomer 2) [Example 160]	1 to 5	0.1 to 0.5	< 0.5	
Cc1cc([C@@H](C)Nc2ccc(Cl)nc2C(=O)O)c2oc(-c3ccccc3)c(C)c(=O)c2c1 [Example 1, 6-Chloro-3-[[(1R)-1-(3,6-dimethyl-4-oxo-2-phenyl-chromen-8-yl)ethyl]amino]pyridine-2-carboxylic acid]	0.5 to 1		< 0.5	< 0.05
Cc1cc([C@@H](C)Nc2ccc(C(F)(F)F)nc2C(=O)O)c2oc(-c3ccccc3)c(C)c(=O)c2c1 [Example 26, 3-[[(1R)-1-(3,6-Dimethyl-4-oxo-2-phenyl-chromen-8-yl)ethyl]amino]-6-(trifluoromethyl)-pyridine-2-carboxylic acid]	0.5 to 1		< 0.5	0.05 to 0.1

Results, then the compound that gave them:

IC50 [1] [µM]	IC50 [2] [µM]	IC50 [3] [µM]	IC50 ([2]; Homo sapiens, MDA-MB-453, 3 h) [µM]	SMILES
1 to 5	0.05 to 0.1	< 0.5		Cc1cc(C(C)Nc2ccccc2C(=O)O)c2oc(-c3ccccc3)c(F)c(=O)c2c1 (single isomer, unassigned; isomer 2) [Example 133, 2-[1-(3-Fluoro-6-methyl-4-oxo-2-phenyl-chromen-8-yl)ethylamino]benzoic acid, Isomer 2]
> 10		< 0.5	< 0.05	Cc1cc([C@@H](C)Nc2ccccc2C(=O)O)c2oc(-c3ccccc3C)cc(=O)c2c1 [Example 14, 2-[[(1R)-1-[6-Methyl-2-(o-tolyl)-4-oxo-chromen-8-yl]ethyl]amino]benzoic acid]
5 to 10		< 0.5	< 0.05	Cc1cc([C@@H](C)Nc2ccccc2C(=O)O)c2oc(-c3ccccc3C#N)cc(=O)c2c1 [Example 15, 2-[[(1R)-1-[2-(2-Cyanophenyl)-6-methyl-4-oxo-chromen-8-yl]ethyl]amino]benzoic acid]
1 to 5		< 0.5	< 0.05	Cc1cc([C@@H](C)Nc2ccccc2C(=O)O)c2oc(-c3ccccc3)c(C)c(=O)c2c1 [Example 21, 2-[[(1R)-1-(3,6-Dimethyl-4-oxo-2-phenyl-chromen-8-yl)ethyl]amino]benzoic acid]
1 to 5		< 0.5	0.05 to 0.1	Cc1cc([C@@H](C)Nc2ccccc2C(=O)O)c2oc(-c3ccc(C(C)(C)C#N)cc3)cc(=O)c2c1 [Example 25]
